Legend:
Assay type in all cases: in vivo
Avena fatua = experiment: Test Example 4: herbicidal effect by soil treatment (symbol I)
Outline: (§1)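 Seeds were sown in sterilized diluvial soil, covered with about 1.5 cm of soil, and the soil surface was sprayed with a water-diluted emulsion of the compound at a predetermined rate. Plants grew in a greenhouse at 25° C. to 30° C.; effects were scored visually 3 weeks after application.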

Monochoria vaginalis = experiment: Test Example 1: herbicidal activity, application before weed generation in submerged conditions (symbol C); conditions: application herbicide amount 320 g/ha
Outline: (§2)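 Steps: alluvial soil flooded to 4 cm; weed seeds sown together; rice seedlings (2.5 leaf) transplanted; diluted emulsion applied to water surface the same day as sowing; plants grown at 25–30 °C in greenhouse; herbicidal effect rated on a 0–5 scale at 3 weeks.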

Scirpus juncoides = experiment: Test Example 1: herbicidal activity, application before weed generation in submerged conditions (symbol B); conditions: application herbicide amount 320 g/ha
Outline: as §2

[1] = test system: Echinochloa crus-galli var. crus-galli; experiment: Test Example 5: herbicidal effect by foliage application, plastic box (symbol H); conditions: 320 g/ha, 3 weeks after application
Outline: (§3)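 Herbicide, formulated as an emulsion and diluted in water, is sprayed onto the aerial parts of 14-day seedlings. These were grown at 25° C. to 30° C. in sterilized diluvial soil; effects are graded after 3 weeks.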

Chenopodium album [2] = experiment: Test Example 5: herbicidal effect by foliage application, plastic box (symbol O); conditions: 320 g/ha, 3 weeks after application
Outline: as §3

beet = experiment: Test Example 4: effect on crop by soil treatment (symbol f); conditions: for f: beet, effect on crop grade: application herbicide amount 320 g/ha
Outline: (§4)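 Plants are raised in a greenhouse (25° C. to 30° C.) from spot-sown seed, which sits under about 1.5 cm of sterilized diluvial soil in a box shared with weed species.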

soybean [3] = experiment: Test Example 4: effect on crop by soil treatment (symbol d); conditions: for d: soybean, effect on crop grade: application herbicide amount 320 g/ha
Outline: as §4

wheat = experiment: Test Example 4: effect on crop by soil treatment (symbol e); conditions: for e: wheat, effect on crop grade: application herbicide amount 320 g/ha
Outline: as §4

Amaranthus retroflexus [4] = experiment: Test Example 5: herbicidal effect by foliage application, plastic box (symbol N); conditions: 320 g/ha, 3 weeks after application
Outline: as §3

Amaranthus retroflexus [5] = experiment: Test Example 4: herbicidal effect by soil treatment (symbol N)
Outline: as §1

Chenopodium album [6] = experiment: Test Example 4: herbicidal effect by soil treatment (symbol O); conditions: application herbicide amount 320 g/ha
Outline: as §1

Apera spica-venti = experiment: Test Example 4: herbicidal effect by soil treatment (symbol L)
Outline: as §1

Setaria viridis [7] = experiment: Test Example 4: herbicidal effect by soil treatment (symbol G)
Outline: as §1

soybean [8] = experiment: Test Example 5: effect on crop by foliage application, plastic box (symbol d); conditions: 320 g/ha, 3 weeks after application
Outline: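 Seeds were sown in spots in sterilized diluvial soil held in a plastic box 21 cm × 13 cm × 7 cm deep, covered with about 1.5 cm of soil, and grown in a greenhouse at 25° C. to 30° C.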

Abutilon theophrasti = experiment: Test Example 5: herbicidal effect by foliage application, plastic box (symbol M); conditions: 320 g/ha, 3 weeks after application
Outline: as §3

Lolium multiflorum Lam. = experiment: Test Example 4: herbicidal effect by soil treatment (symbol K)
Outline: as §1

Setaria viridis [9] = experiment: Test Example 5: herbicidal effect by foliage application, plastic box (symbol G); conditions: 320 g/ha, 3 weeks after application
Outline: as §3

[10] = test system: Echinochloa crus-galli var. crus-galli; experiment: Test Example 3: herbicidal effect by foliage application, Wagner pot (symbol H); conditions: application herbicide amount 320 g/ha
Outline: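 Weeds and rice were sown in alluvial soil under 0.1–0.5 cm of standing water and grown for 14 days in a 25–30 °C greenhouse. An emulsion of the compound, diluted in water to a set dose, was sprayed evenly onto the foliage. Effect was scored against fixed criteria 3 weeks after treatment.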

Galium spurium = experiment: Test Example 5: herbicidal effect by foliage application, plastic box (symbol Q); conditions: 320 g/ha, 3 weeks after application
Outline: as §3

[11] = application herbicide amount 320 g/ha

Compound	I: Avena fatua, herbicidal effect grade (Avena fatua; [11])	Herbicidal effect grade, C: Monochoria vaginalis (Monochoria vaginalis)	Herbicidal effect grade, B: Scirpus juncoides (Scirpus juncoides)	H: Echinochloa crus-galli var. crus-galli, herbicidal effect grade [1]	O: Chenopodium album, herbicidal effect grade (Chenopodium album [2])	f: beet, effect on crop grade (beet)	d: soybean, effect on crop grade (soybean [3])	e: wheat, effect on crop grade (wheat)	N: Amaranthus retroflexus, herbicidal effect grade (Amaranthus retroflexus [4])	N: Amaranthus retroflexus, herbicidal effect grade (Amaranthus retroflexus [5]; [11])	O: Chenopodium album, herbicidal effect grade (Chenopodium album [6])	L: Apera spica-venti, herbicidal effect grade (Apera spica-venti; [11])	G: Setaria viridis, herbicidal effect grade (Setaria viridis [7]; [11])	d: soybean, effect on crop grade (soybean [8])	M: Abutilon theophrasti, herbicidal effect grade (Abutilon theophrasti)	K: Lolium multiflorum Lam., herbicidal effect grade (Lolium multiflorum Lam.; [11])	G: Setaria viridis, herbicidal effect grade (Setaria viridis [9])	herbicidal effect on H (Echinochloa crus-galli var. crus-galli), grade 0-5 [10]	other results
Cc1cc(C)c(C2=C(O)CC(CC(=O)C(C)(C)C)C2=O)c(C)c1 (centres unmarked) [2-022]	0 (Herbicidal ratio of 5% or lower (almost no effect))	0 (Herbicidal ratio of 5% or lower (almost no effect))	0 (Herbicidal ratio of 5% or lower (almost no effect))	1 (Herbicidal ratio of 5% or higher and lower than 20%)	0 (Herbicidal ratio of 5% or lower (almost no effect))	0 (Herbicidal ratio of 5% or lower (almost no effect))	0 (Herbicidal ratio of 5% or lower (almost no effect))	0 (Herbicidal ratio of 5% or lower (almost no effect))	0 (Herbicidal ratio of 5% or lower (almost no effect))	0 (Herbicidal ratio of 5% or lower (almost no effect))	0 (Herbicidal ratio of 5% or lower (almost no effect))	0 (Herbicidal ratio of 5% or lower (almost no effect))	4 (Herbicidal ratio of 70% or higher and lower than 90%)	0 (Herbicidal ratio of 5% or lower (almost no effect))	0 (Herbicidal ratio of 5% or lower (almost no effect))	4 (Herbicidal ratio of 70% or higher and lower than 90%)	0 (Herbicidal ratio of 5% or lower (almost no effect))	1 (Herbicidal ratio of 5% or higher and lower than 20%)	
Cc1cc(C)c(C2=C(O)CC(CC(=O)C3CC3)C2=O)c(C)c1 (centres unmarked) [2-017]	0 (Herbicidal ratio of 5% or lower (almost no effect))	3 (Herbicidal ratio of 40% or higher and lower than 70%)	5 (Herbicidal ratio of 90% or more (almost completely withered))	5 (Herbicidal ratio of 90% or more (almost completely withered))		0 (Herbicidal ratio of 5% or lower (almost no effect))	0 (Herbicidal ratio of 5% or lower (almost no effect))	0 (Herbicidal ratio of 5% or lower (almost no effect))	0 (Herbicidal ratio of 5% or lower (almost no effect))	0 (Herbicidal ratio of 5% or lower (almost no effect))	0 (Herbicidal ratio of 5% or lower (almost no effect))	3 (Herbicidal ratio of 40% or higher and lower than 70%)	5 (Herbicidal ratio of 90% or more (almost completely withered))	0 (Herbicidal ratio of 5% or lower (almost no effect))	1 (Herbicidal ratio of 5% or higher and lower than 20%)	5 (Herbicidal ratio of 90% or more (almost completely withered))	5 (Herbicidal ratio of 90% or more (almost completely withered))	5 (Herbicidal ratio of 90% or more (almost completely withered))	
CON=C(C)CC1CC(O)=C(c2c(C)cc(C#CCO)cc2C)C1=O (mixture of isomers) [6-025]	2 (Herbicidal ratio of 20% or higher and lower than 40%)	0 (Herbicidal ratio of 5% or lower (almost no effect))	0 (Herbicidal ratio of 5% or lower (almost no effect))	5 (Herbicidal ratio of 90% or more (almost completely withered))	0 (Herbicidal ratio of 5% or lower (almost no effect))	0 (Herbicidal ratio of 5% or lower (almost no effect))	0 (Herbicidal ratio of 5% or lower (almost no effect))	0 (Herbicidal ratio of 5% or lower (almost no effect))	0 (Herbicidal ratio of 5% or lower (almost no effect))	0 (Herbicidal ratio of 5% or lower (almost no effect))		4 (Herbicidal ratio of 70% or higher and lower than 90%)	4 (Herbicidal ratio of 70% or higher and lower than 90%)	0 (Herbicidal ratio of 5% or lower (almost no effect))	0 (Herbicidal ratio of 5% or lower (almost no effect))	5 (Herbicidal ratio of 90% or more (almost completely withered))	5 (Herbicidal ratio of 90% or more (almost completely withered))	5 (Herbicidal ratio of 90% or more (almost completely withered))	Q: Galium spurium, herbicidal effect grade (Galium spurium): 0 (Herbicidal ratio of 5% or lower (almost no effect))
CON=C(C)CC1CC(OS(=O)(=O)C2CC2)=C(c2c(C)cc(C)cc2C)C1=O (centres unmarked) [1-143]		1 (Herbicidal ratio of 5% or higher and lower than 20%)	4 (Herbicidal ratio of 70% or higher and lower than 90%)															4 (Herbicidal ratio of 70% or higher and lower than 90%)	I: Avena fatua, herbicidal effect grade (Avena fatua; 320 g/ha): 2 (Herbicidal ratio of 20% or higher and lower than 40%); H: Echinochloa crus-galli var. crus-galli, herbicidal effect (criteria 0-5) [1]: 5 (Herbicidal ratio of 90% or more (almost completely withered)); O: Chenopodium album, herbicidal effect (criteria 0-5) (Chenopodium album [2]): 0 (Herbicidal ratio of 5% or lower (almost no effect)); f: beet, effect grade on crop (beet; 320 g/ha): 0 (Herbicidal ratio of 5% or lower (almost no effect)); d: soybean, effect grade on crop (soybean [3]; 320 g/ha): 0 (Herbicidal ratio of 5% or lower (almost no effect)); e: wheat, effect grade on crop (wheat; 320 g/ha): 2 (Herbicidal ratio of 20% or higher and lower than 40%); N: Amaranthus retroflexus, herbicidal effect (criteria 0-5) (Amaranthus retroflexus [4]): 1 (Herbicidal ratio of 5% or higher and lower than 20%); N: Amaranthus retroflexus, herbicidal effect grade (Amaranthus retroflexus [5]; 320 g/ha): 0 (Herbicidal ratio of 5% or lower (almost no effect)); Q: Galium spurium, herbicidal effect (criteria 0-5) (Galium spurium): 0 (Herbicidal ratio of 5% or lower (almost no effect)); L: Apera spica-venti, herbicidal effect grade (Apera spica-venti; 320 g/ha): 5 (Herbicidal ratio of 90% or more (almost completely withered)); G: Setaria viridis, herbicidal effect grade (Setaria viridis [7]; 320 g/ha): 1 (Herbicidal ratio of 5% or higher and lower than 20%); d: soybean, effect on crop (criteria 0-5) (soybean [8]): 1 (Herbicidal ratio of 5% or higher and lower than 20%); M: Abutilon theophrasti, herbicidal effect (criteria 0-5) (Abutilon theophrasti): 1 (Herbicidal ratio of 5% or higher and lower than 20%); K: Lolium multiflorum Lam., herbicidal effect grade (Lolium multiflorum Lam.; 320 g/ha): 4 (Herbicidal ratio of 70% or higher and lower than 90%); G: Setaria viridis, herbicidal effect (criteria 0-5) (Setaria viridis [9]): 5 (Herbicidal ratio of 90% or more (almost completely withered))
